Patent US11541055B2, “Inhibitors of human immunodeficiency virus replication” (ViiV Healthcare UK (No. 5) LIMITED, priority 2018, dated 2023)

What was measured:
[1] = Compound cytotoxicity, XTT-based colorimetric assay; type: cell-based; details: human; uninfected MT2 cells, day 4, XTT
Protocol: Compound cytotoxicity and the corresponding CC50 values were determined using the same protocol as described in the antiviral assay except that uninfected cells were used. Cytotoxicity was assessed on day 4 in uninfected MT2 cells by using a XTT (2,3-bis[2-Methoxy-4-nitro-5-sulfophenyl]-2H-tetrazolium-5-carboxyanilide inner salt)-based colorimetric assay (Sigma-Aldrich, St Louis, Mo.).

[2] = system: recombinant NL4-3 virus (Renilla luciferase) in MT-2 cells; experiment: HIV cell culture assay (antiviral activity, luciferase readout); type: cell-based; details: Renilla, NL43
Protocol: HIV cell culture assay—MT-2 cells, 293T cells and the proviral DNA clone of NL4-3 virus were obtained from the NIH AIDS Research and Reference Reagent Program. MT-2 cells were propagated in RPMI 1640 media supplemented with 10% heat inactivated fetal bovine serum (FBS), […]. The 293T cells were propagated in DMEM media supplemented with 10% heat inactivated FBS, […] penicillin G and […] streptomycin. A recombinant NL40.3 proviral clone, in which a section of the nef gene was replaced with the Renilla luciferase gene, was used to make the reference virus used in these studies. The recombinant virus was prepared through transfection of the recombinant NL4-3 proviral clone into 293T cells using Transit-293 Transfection Reagent from Minis Bio LLC (Madison, Wis.). Supernatent was harvested after 2-3 days and the amount of virus present was titered in MT-2 cells using luciferase enzyme activity as a marker by measuring luciferase enzyme activity. Luciferase was quantitated using the EnduRen Live Cell Substrate from Promega (Madison, Wis.). Antiviral activities of compounds toward the recombinant virus were quantified by measuring luciferase activity in MT-2 cells infected for 4-5 days with the recombinant virus in the presence of serial dilutions of the compound.
The 50% effective concentration (EC50) was calculated by using the exponential form of the median effect equation where (Fa)=1/[1+(ED50/drug conc.)m] (Johnson V A, Byington R T. Infectivity Assay. In Techniques in HIV Research. ed. Aldovini A, Walker B D. 71-76. New York: Stockton Press. 1990). The 50% inhibitory concentration (EC50) was calculated by using the exponential form of the median effect equation where percent inhibition=1/[1+(EC50/drug concentration)m], where m is a parameter that reflects the slope of the concentration-response curve.

Row | SMILES | CC50 at 4 days [1] [pM] | EC50 [2] [pM]
1 | COc1ccc(-c2ccc3c(=O)n(-c4ccc(Cl)c5c(NS(C)(=O)=O)nn(C)c45)c([C@H](Cc4cc(F)cc(F)c4)NC(=O)Cn4nc(C(F)F)c5c4C(F)(F)[C@@H]4C[C@H]54)nc3c2)nn1 (atropisomer, axis not shown; (P)) [Example 7, N—((S)-1-((3P)-3-(4-chloro-1-methyl-3-(methylsulfonamido)-1H-indazol-7-yl)-7-(6-methoxypyridazin-3-yl)-4-oxo-3,4-dihydroquinazolin-2-yl)-2-(3,5-difluorophenyl)ethyl)-2-((3bS,4aR)-3-(difluoromethyl)-5,5-difluoro-3b,4,4a,5-tetrahydro-1H-cyclopropa[3,4]cyclopenta[1,2-c]pyrazol-1-yl)acetamide] | > 500000 | 53
2 | COc1cnc(-c2ccc3c(=O)n(-c4ccc(Cl)c5c(NS(=O)(=O)C6CC6)nn(CC(F)F)c45)c([C@H](Cc4cc(F)cc(F)c4)NC(=O)Cn4nc(C(F)F)c5c4C(F)(F)[C@@H]4C[C@H]54)nc3c2)nc1 (atropisomer, axis not shown) [Example 98, N-[(1S)-1-{3-[4-chloro-3-cyclopropanesulfonamido-1-(2,2-difluoroethyl)-1H-indazol-7-yl]-7-(5-methoxypyrimidin-2-y1)-4-oxo-3,4-dihydroquinazolin-2-yl}-2-(3,5-difluorophenyl)ethyl]-2-[(2S,4R)-9-(difluoromethyl)-5,5-difluoro-7,8-diazatricyclo[4.3.0.0^2,^4]nona-1(6),8-dien-7-yl]acetamide] | > 500000 | 160
3 | CCc1cc(C)nc(-c2ccc3c(=O)n(-c4ccc(Cl)c5c(NS(C)(=O)=O)nn(C)c45)c([C@H](Cc4cc(F)cc(F)c4)NC(=O)Cn4nc(C(F)F)c5c4C(F)(F)[C@@H]4C[C@H]54)nc3c2)n1 (atropisomer, axis not shown; (P)) [Example 36, N—((S)-1-((3P)-3-(4-chloro-1-methyl-3-(methylsulfonamido)-1H-indazol-7-yl)-7-(4-ethyl-6-methylpyrimidin-2-yl)-4-oxo-3,4-dihydroquinazolin-2-yl)-2-(3,5-difluorophenyl)ethyl)-2-((3bS,4aR)-3-(difluoromethyl)-5,5-difluoro-3b,4,4a,5-tetrahydro-1H-cyclopropa[3,4]cyclopenta[1,2-c]pyrazol-1-yl)acetamide] | > 500000 | 87
4 | Cn1nc(NS(C)(=O)=O)c2c(Cl)ccc(-n3c([C@H](Cc4cc(F)cc(F)c4)NC(=O)Cn4nc(C(F)F)c5c4C(F)(F)[C@@H]4C[C@H]54)nc4cc(-c5nccnc5C5CC5)ccc4c3=O)c21 (atropisomer, axis not shown; (P)) [Example 61, N—((S)-1-((3P)-3-(4-chloro-1-methyl-3-(methylsulfonamido)-1H-indazol-7-yl)-7-(3-cyclopropylpyrazin-2-yl)-4-oxo-3,4-dihydroquinazolin-2-yl)-2-(3,5-difluorophenyl)ethyl)-2-((3bS,4aR)-3-(difluoromethyl)-5,5-difluoro-3b,4,4a,5-tetrahydro-1H-cyclopropa[3,4]cyclopenta[1,2-c]pyrazol-1-yl)acetamide] | > 500000 | 160
5 | Cc1cc(-c2ccc3c(=O)n(-c4ccc(Cl)c5c(NS(C)(=O)=O)nn(C)c45)c([C@H](Cc4cc(F)cc(F)c4)NC(=O)Cn4nc(C(F)F)c5c4C(F)(F)[C@@H]4C[C@H]54)nc3c2)nc(CO)n1 (atropisomer, axis not shown) [Example 118, N-[(1S)-1-[3-(4-chloro-3-methanesulfonamido-1-methyl-1H-indazol-7-yl)-7-[2-(hydroxymethyl)-6-methylpyrimidin-4-yl]-4-oxo-3,4-dihydroquinazolin-2-yl]-2-(3,5-difluorophenyl)ethyl]-2-[(2S,4R)-9-(difluoromethyl)-5,5-difluoro-7,8-diazatricyclo[4.3.0.0^2,^4]nona-1(6),8-dien-7-y]acetamide] | > 500000 | 48
6 | Cc1nc(C)c(-c2ccc3c(=O)n(-c4ccc(Cl)c5c(NS(C)(=O)=O)nn(C)c45)c([C@H](Cc4cc(F)cc(F)c4)NC(=O)Cn4nc(C(F)F)c5c4C(F)(F)[C@@H]4C[C@H]54)nc3c2)s1 (atropisomer, axis not shown; (P)) [Example 6, N—((S)-1-((3P)-3-(4-chloro-1-methyl-3-(methylsulfonamido)-1H-indazol-7-yl)-7-(2,4-dimethylthiazol-5-yl)-4-oxo-3,4-dihydroquinazolin-2-yl)-2-(3,5-difluorophenyl)ethyl)-2-((3bS,4aR)-3-(difluoromethyl)-5,5-difluoro-3b,4,4a,5-tetrahydro-1H-cyclopropa[3,4]cyclopenta[1,2-c]pyrazol-1-yl)acetamide] | > 500000 | 120
7 | Cn1nc(NS(C)(=O)=O)c2c(Cl)ccc(-n3c([C@H](Cc4cc(F)cc(F)c4)NC(=O)Cn4nc(C(F)F)c5c4C(F)(F)[C@@H]4C[C@H]54)nc4cc(-c5ncccc5S(C)(=O)=O)ccc4c3=O)c21 (atropisomer, axis not shown; (P)) [Example 8, N—((S)-1-((3P)-3-(4-chloro-1-methyl-3-(methylsulfonamido)-1H-indazol-7-yl)-7-(3-(methylsulfonyl)pyridin-2-yl)-4-oxo-3,4-dihydroquinazolin-2-yl)-2-(3,5-difluorophenyl)ethyl)-2-((3bS,4aR)-3-(difluoromethyl)-5,5-difluoro-3b,4,4a,5-tetrahydro-1H-cyclopropa[3,4]cyclopenta[1,2-c]pyrazol-1-yl)acetamide] | > 500000 | 78
8 | COc1ccc(-c2ccc3c(=O)n(-c4ccc(Cl)c5c(NS(C)(=O)=O)nn(CC(F)F)c45)c([C@H](Cc4cc(F)cc(F)c4)NC(=O)Cn4nc(C(F)F)c5c4C(F)(F)[C@@H]4C[C@H]54)nc3c2)nn1 (atropisomer, axis not shown) [Example 129, N-[(1S)-1-{3-[4-chloro-1-(2,2-difluoroethyl)-3-methanesulfonamido-1H-indazol-7-yl]-7-(6-methoxypyridazin-3-yl)-4-oxo-3,4-dihydroquinazolin-2-yl}-2-(3,5-difluorophenyl)ethyl]-2-[(2S,4R)-9-(difluoromethyl)-5,5-difluoro-7,8-diazatricyclo[4.3.0.0^2,^4]nona-1(6),8-dien-7-yl]acetamide] | > 500000 | 54
9 | Cc1nccc(-c2ccc3c(=O)n(-c4ccc(Cl)c5c(NS(C)(=O)=O)nn(CC(F)(F)F)c45)c([C@H](Cc4cc(F)cc(F)c4)NC(=O)Cn4nc(C(F)F)c5c4C(F)(F)[C@@H]4C[C@H]54)nc3c2)n1 (atropisomer, axis not shown) [Example 100, N-[(1S)-1-{3-[4-chloro-3-methanesulfonamido-1-(2,2,2-trifluoroethyl)-1H-indazol-7-yl]-7-(2-methylpyrimidin-4-yl)-4-oxo-3,4-dihydroquinazolin-2-yl}-2-(3,5-difluorophenyl)ethyl]-2-[(2S,4R)-9-(difluoromethyl)-5,5-difluoro-7,8-diazatricyclo[4.3.0.0^2,^4]nona-1(6),8-dien-7-yl]acetamide] | > 500000 | 42
10 | Cc1nnc(-c2ccc3c(=O)n(-c4ccc(Cl)c5c(NS(C)(=O)=O)nn(CC(F)F)c45)c([C@H](Cc4cc(F)cc(F)c4)NC(=O)Cn4nc(C(F)F)c5c4C(F)(F)[C@@H]4C[C@H]54)nc3c2)nc1C (atropisomer, axis not shown) [Example 133, N-[(1S)-1-{3-[4-chloro-1-(2,2-difluoroethyl)-3-methanesulfonamido-1H-indazol-7-yl]-7-(5,6-dimethyl-1,2,4-triazin-3-yl)-4-oxo-3,4-dihydroquinazolin-2-yl}-2-(3,5-difluorophenyl)ethyl]-2-[(2S,4R)-9-(difluoromethyl)-5,5-difluoro-7,8-diazatricyclo[4.3.0.0^2,^4]nona-1(6),8-dien-7-yl]acetamide] | > 500000 | 40
11 | CCc1cc(-c2ccc3c(=O)n(-c4ccc(C)c5c(NS(C)(=O)=O)nn(C)c45)c([C@H](Cc4cc(F)cc(F)c4)NC(=O)Cn4nc(C(F)F)c5c4C(F)(F)[C@@H]4C[C@H]54)nc3c2)nc(C)n1 (atropisomer, axis not shown) [Example 139, 2-[(2S,4R)-9-(difluoromethyl)-5,5-difluoro-7,8-diazatricyclo[4.3.0.0^2,^4]nona-1(6),8-dien-7-yl]-N-[(1S)-2-(3,5-difluorophenyl)-1-[7-(6-ethy1-2-methylpyrimidin-4-yl)-3-(3-methanesulfonamido-1,4-dimethyl-1H-indazol-7-yl)-4-oxo-3,4-dihydroquinazolin-2-yl]ethyl]acetamide] | > 500000 | 130
